Data as given in patent publication US20260325465A1, “SHP-1 INHIBITORS FOR TREATING CANCER” (MDX MANAGEMENT LLC, priority 2022, published 2026).

Key:
[1] = target: T1, SHP-1 (Mus musculus, UniProt P29351); assay: Pulse inhibition of SHP-1 in macrophages, SHP-1 activity (pNpp) over time; type: cell-based, murine
T1 construct: lysate pNpp phosphatase activity after TPI-1 pulse
Method: FIGS. 4A and 4B depict that pulse inhibition of SHP-1 transiently enhances proinflammatory signal transduction in macrophages. FIG. 4A: murine macrophages (bone marrow derived macrophages, or “BMDM”) were treated with TPI-1 for 15 min followed by wash to complete removal of TPI-1. At different time points after the TPI-1 treatment, macrophages were stimulated with IFNγ/LPS in the presence of alive cancer cells (1:1 ratio to BMDM) for 20 min prior to cell lysis and assaying SHP-1 activity using pNpp and WB detecting total and phosphorylated STAT1 and Erk1/2. FIG. 4B: the same setting as in FIG. 4A, except that after TPI-1 treatment, TPI-1 in medium was partially removed (50%) or without removal, followed by macrophage stimulation with IFNγ/LPS at different time points.

[2] = test system: solid tumors; assay: Intermittent period after TPI-1 combined therapy in tumors; type: in vivo, murine; conditions: TPI-1 combined with TLR agonists or RT
From the text: Furthermore, these analyses of the TME immune landscape changes following TPI-1 combined therapies informed our design of the pulse-intermittent SHP-1 inhibition strategy for metastatic solid tumors. […] Along with macrophage reduction, tumor-associated SHP-1 activities also dwindled, a change that ousted the necessity of continuous TPI-1 application. This “intermittent” period lasted 3-6 days, a length dependent on TPI-1 and TLR agonists/RT dosages, as well as tumor type and stage prior to treatment. […] Consistent with these changes, the tumors after the intermittent period were reverted to growth, unless another cycle of TPI-1 combined therapy was applied, which were again effectively suppressing tumors.

[3] = Study-3: adverse effects; type: in vivo, mice; conditions: TPI-1 with RT and αPD-L1
Method: FIGS. 13A-13E depict pulse-intermittent SHP-1 inhibition (iSHP-1) combination with RT and αPD-L1 treating pancreatic cancer and lung cancer. FIG. 13A depicts experimental schemes. […] Concomitantly, the tumor at the right flank was treated with 8Gy X-ray radiation (RT). After two days of intermittent period, mice on day 4 were treated with the 2nd cycle TPI-1 (i.p.) of the same dose while RT reduced to 4Gy applied to the right flank tumor. The 3rd cycle (day 7) iSHP-1 combination with RT reduced to 2Gy. Anti-PD-L1 Ab (100 μg, i.p.) was given a day following TPI-1 plus RT. FIG. 13B depicts luminescent image tracing KPC-luc and LLC-luc tumor changes post treatment. FIG. 13C depicts record of tumor volume changes and animal survival up to post-treatment 45 days.
Modalities & Dosing Strategy: i) iSHP-1—TPI-1, 3 or 5 mg/kg, i.p., 1× every 3 days. ii) Tumor focal RT: 8Gy-4Gy-2Gy, given to right flank simultaneously with iSHP-1. iii) αPD-L1: 100 μg, i.p., given a day after iSHP-1 plus RT

[4] = test system: MC38 colorectal carcinoma; assay: TME analysis of MC38 colorectal carcinoma in mice; type: in vivo, murine
From the text: FIGS. 8A-8E depict that SHP-1 inhibition combined with TLR agonists (αTLR) reprograms TME of MC38 colorectal carcinoma. FIG. 8A depicts MC38 tumor treatment scheme.

[5] = test system: THP-1 leukemia cells and HT29 colon cancer cells; assay: Phagocytosis by human monocytes-derived macrophages; type: cell-based; conditions: 1 μg/ml
Method: (§1) FIGS. 2A-2G depict that the inhibition of SHP-1 enhances macrophage proinflammatory response, antigen presentation and phagocytosis in a tumor milieu. FIG. 2A and FIG. 2B depict that SHP-1 activity in macrophages is triggered by proinflammatory stimulation and the extracellular cancer cell ligation (“touching”) of macrophages (green bar in FIG. 2A). […] The SHP-2 inhibitor SHP099 (1 μg/ml) was used in assays. FIG. 2C depicts the inhibition of SHP-1 by TPI-1 dose-dependently recovers IFNγ/LPS-induced activation of STAT1 (p-STAT1) and Erk1/2 (p-Erk1/2) de-activated by SHP-1 (red line). FIG. 2D and FIG. 2E depict that the inhibition of SHP-1 in macrophages by TPI-1 enhances production of proinflammatory cytokines (FIG. 2D) and expression of immunogenic antigen presentation machinery (FIG. 2E) by IFNγ/LPS in a tumor milieu. […] The SHP-1 and SHP-2 inhibitors TPI-1 and SHP099, respectively, was used at 1 μg/ml in assays.

[6] = test system: MC38 colorectal carcinoma; assay: Study-2: multi-lesion MC38 colorectal carcinoma, efficacy; type: in vivo, mice; conditions: intermittent iSHP-1 with αTLR, or αTLR and αPD-L1
Method: FIGS. 12A-12D depict that pulse-intermittent inhibition of SHP-1 (iSHP-1) combined with TLR agonists (αTLR) and/or anti-PD-L1 checkpoint inhibitor effectively treat multi-lesion MC38 colorectal carcinoma. FIG. 12A depicts the treatment scheme. Mice with bilateral MC38 tumors (s.c.) were treated for two days with TPI-1 and various combinations via i.p. or s.c. A 5-day intermittent period was given before the 2nd cycle of treatments to mice that had residue tumors. FIGS. 12B and 12C depict tumor control efficacies measured by tumor volume changes (FIG. 12B) and TME reprogramming, indicating increases in tumor killing immune populations while reduction of immunosuppression. FIG. 12D depicts acute adverse toxicity, measured by body weight, proteinuria, serum ALT level and splenomegaly.

[7] = test system: p-STAT1 and p-Erk1/2; assay: STAT1 and Erk1/2 phosphorylation in macrophages with cancer cell ligation; type: cell-based; conditions: IFNγ/LPS
Method: as §1
Macrophages with high SHP-1 activity in a tumor milieu diminish production of proinflammatory cytokines but produce high IL-10 (see FIG. 2D, blue bar) under stimulation of IFNγ/LPS. This reinforcement of immunosuppression was reversed by SHP-1 inhibition. […]

T1 sequence (P29351 whole entry): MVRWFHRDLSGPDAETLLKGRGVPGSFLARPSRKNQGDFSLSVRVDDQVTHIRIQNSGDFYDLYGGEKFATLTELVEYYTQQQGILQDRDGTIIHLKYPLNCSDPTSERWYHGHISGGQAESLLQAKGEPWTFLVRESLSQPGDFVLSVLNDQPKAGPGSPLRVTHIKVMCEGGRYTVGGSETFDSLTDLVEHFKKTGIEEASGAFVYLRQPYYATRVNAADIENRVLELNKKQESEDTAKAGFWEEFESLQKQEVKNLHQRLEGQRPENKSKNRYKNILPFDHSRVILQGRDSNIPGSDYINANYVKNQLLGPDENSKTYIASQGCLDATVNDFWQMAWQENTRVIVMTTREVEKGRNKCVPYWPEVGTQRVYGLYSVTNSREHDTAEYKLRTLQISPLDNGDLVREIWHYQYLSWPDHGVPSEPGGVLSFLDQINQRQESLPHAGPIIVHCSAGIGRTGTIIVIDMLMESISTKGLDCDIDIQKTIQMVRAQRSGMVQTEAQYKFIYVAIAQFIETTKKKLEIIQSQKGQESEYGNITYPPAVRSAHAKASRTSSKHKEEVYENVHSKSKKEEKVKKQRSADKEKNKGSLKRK

## O=C1C=CC(=O)C(c2cc(Cl)ccc2Cl)=C1 [TPI-1]
[1]; 15 min treatment, then wash
  duration of pulse SHP-1 inhibition before activity starts to recover: 5 to 8 h
  time for SHP-1 activity to recover to over 50%: 12 to 16 h
[1]; after pulse inhibition
  SHP-1 total protein: did not appear to vary
[1]; immediately after 15 min treatment and wash
  SHP-1 inhibition (in words): strong SHP-1 inhibition
[1]; in 12-16 h after 15 min treatment and wash
  SHP-1 activity recovered: over 50%
[1]; pulse inhibition in macrophages
  time to recover SHP-1 activity after pulse inhibition: 24 h
[1]; without removal or 50% removal
  SHP-1 inhibition without or with partial inhibitor removal: elongated inhibition on the SHP-1 activity
[2]
  length of intermittent period with reduced macrophages and tumor growth restraint: 3 to 6 days
[3]
  lung inflammation: nor did it incur lung inflammation
  splenomegaly, body weight loss, anemia: did not cause splenomegaly, body weight loss or anemia
[4]; TPI-1 and αTLR
  intratumoral macrophages: marked reduction of intratumoral macrophages
[4]; TPI-1 combined with αTLR
  TME reprogramming: reduction of tumor cells, and increases in immune infiltration especially tumoricidal CD8 T cells, neutrophils (PMN) and NK cells, while reduction of macrophages, MDSC and Treg
[5]
  phagocytosis of cancer cells: promotes proinflammatory-activated macrophages for phagocytosis of cancer cells
[6]
  tumor regression, combination: effectively regressed multiple lesions of MC38 colorectal cancer
[7]
  STAT-1 and Erk1/2 phosphorylation: dose-dependently released cancer cell-imposed inhibition
